The results in this text go back to PMC8460509, “Imitating evolution’s tinkering by protein engineering reveals extension of human galectin-7 activity” (Histochemistry and cell biology, 2021).

Common to all, as to assay: isothermal titration calorimetry
Background: In ITC the heat of successive injections is recorded.

In one assay the target is T1, Gal-7 (Homo sapiens, UniProt P47929).
T1 construct: gene LGALS7; wild type, recombinant from E. coli, lactosylated Sepharose; non-covalent homodimer
T1 sequence (P47929 whole entry): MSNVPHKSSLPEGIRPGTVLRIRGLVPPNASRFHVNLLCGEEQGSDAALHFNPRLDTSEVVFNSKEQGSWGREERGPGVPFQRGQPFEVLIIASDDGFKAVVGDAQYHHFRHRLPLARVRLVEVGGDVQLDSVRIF
It is filed as binding. The conditions noted are these: 25 °C. From the text: isothermal titration calorimetry on Gal-7 | TF) antigen CD176) interacts with Gal-7’s CRD (Table S15, Fig. S11) | The data obtained with Lac (Table S14) corroborated the conclusions on activity

Another assay has as its target T2, Gal-1–8S–Gal-7.
T2 construct: gene LGALS1; Gal-1 CRD N-terminal, 33-amino-acid linker of Gal-8S, Gal-7 CRD C-terminal; one polypeptide; recombinant from E. coli
Type of assay: binding, Homo sapiens. The following applies: 25 °C, pH 7.2, 20 mM phosphate, 10 mM NaCl, 10 mM beta-mercaptoethanol; one-set-of-sites, n fitted. From the text: isothermal titration calorimetry on Gal-1–8S–Gal-7

The target in a further assay is T3, Gal-7–Gal-7 (Homo sapiens, UniProt P47929).
T3 construct: gene LGALS7; two Gal-7 CRDs directly fused in one polypeptide (covalent homodimer, no added residues); recombinant from E. coli
T3 sequence (P47929 whole entry, the tested form may be a part): as the sequence (P47929 whole entry) above
It is filed as binding. The conditions noted are these: 25 °C, pH 7.2, 20 mM phosphate, 10 mM NaCl, 10 mM beta-mercaptoethanol; one-set-of-sites, n fitted; LacNAc 10 mM. From the text:
isothermal titration calorimetry on Gal-7–Gal-7

In the next assay the target is T4, Gal-7–Gal-1.
T4 construct: gene LGALS7; direct fusion, Gal-7 CRD N-terminal, Gal-1 CRD C-terminal; one polypeptide; recombinant from E. coli
Type of assay: binding, Homo sapiens. The conditions noted are these: 25 °C, pH 7.2, 20 mM phosphate, 10 mM NaCl, 10 mM beta-mercaptoethanol; one-set-of-sites, n fitted. From the text:
isothermal titration calorimetry on Gal-7–Gal-1

Another assay concerns the target T5, Gal-1–Gal-7.
T5 construct: gene LGALS1; direct fusion, Gal-1 CRD N-terminal, Gal-7 CRD C-terminal; one polypeptide; recombinant from E. coli
It is filed as binding, Homo sapiens. The following applies: 25 °C, pH 7.2, 20 mM phosphate, 10 mM NaCl, 10 mM beta-mercaptoethanol; one-set-of-sites, n fitted. From the text: isothermal titration calorimetry on Gal-1–Gal-7

The next assay addresses T6, Gal-7–8S–Gal-3.
T6 construct: gene LGALS7; one polypeptide; recombinant from E. coli
Type of assay: binding, Homo sapiens. The conditions noted are these: 25 °C, pH 7.2, 20 mM phosphate, 10 mM NaCl, 10 mM beta-mercaptoethanol; one-set-of-sites, n fitted; LacNAc 2 mM. From the text:
isothermal titration calorimetry on Gal-7–8S–Gal-3

The next assay concerns the target T7, Gal-3–8S–Gal-7.
T7 construct: gene LGALS3; one polypeptide; recombinant from E. coli
Type of assay: binding, Homo sapiens. The conditions noted are these: 25 °C, pH 7.2, 20 mM phosphate, 10 mM NaCl, 10 mM beta-mercaptoethanol; one-set-of-sites, n fitted. From the text: isothermal titration calorimetry on Gal-3–8S–Gal-7

The target of the next assay is T8, Gal-3–Gal-7.
T8 construct: gene LGALS3; one polypeptide; recombinant from E. coli
Type of assay: binding, Homo sapiens. The conditions noted are these: 25 °C, pH 7.2, 20 mM phosphate, 10 mM NaCl, 10 mM beta-mercaptoethanol; one-set-of-sites, n fitted. From the text:
isothermal titration calorimetry on Gal-3–Gal-7

The next assay deals with T9, Gal-7–Gal-3.
T9 construct: gene LGALS7; one polypeptide; recombinant from E. coli
It is filed as binding, Homo sapiens. The conditions noted are these: 25 °C, pH 7.2, 20 mM phosphate, 10 mM NaCl, 10 mM beta-mercaptoethanol; one-set-of-sites, n fitted. From the text: isothermal titration calorimetry on Gal-7–Gal-3

The target of the next assay is T10, Gal-7–8S–Gal-7 (Homo sapiens, UniProt P47929).
T10 construct: gene LGALS7; two Gal-7 CRDs in one polypeptide joined by the 33-amino-acid linker of Gal-8S (covalent homodimer); recombinant from E. coli
T10 sequence (P47929 whole entry): as above
It is filed as binding. The following applies: 25 °C, pH 7.2, 20 mM phosphate, 10 mM NaCl, 10 mM beta-mercaptoethanol; one-set-of-sites, n fitted. From the text: isothermal titration calorimetry on Gal-7–8S–Gal-7

What is called Kd is a measure of binding affinity in units of concentration. High values mean a looser complex, low ones a tighter complex. `CC(=O)N[C@H]1C(O)O[C@H](CO)[C@@H](O[C@@H]2O[C@H](CO)[C@H](O)[C@H](O)[C@H]2O)[C@@H]1O` (stereo partly drawn) [LacNAc]: the dissociation constant (Kd) on Gal-7 (pH 7.2, 20 mM phosphate, 10 mM NaCl, 10 mM beta-mercaptoethanol, one-set-of-sites, n fitted) worked out at 316 ± 5.88 µM; at Gal-1–8S–Gal-7, 162 ± 3.79 µM; at Gal-7–Gal-7, 261 ± 6.21 µM; at Gal-7–Gal-1, 103 ± 6.11 µM; at Gal-1–Gal-7, 175 ± 2.11 µM; at Gal-7–8S–Gal-3, 32.5 ± 0.81 µM. The Kd on Gal-3–8S–Gal-7 is 68.6 ± 6.56 µM; at Gal-3–Gal-7 it was 96.2 ± 2.1 µM; on Gal-7–Gal-3, 86.5 ± 5.75 µM; at Gal-7–8S–Gal-7, 287 ± 9.55 µM.
In the case of `OC[C@H]1O[C@@H](O[C@H]2[C@H](O)[C@@H](O)C(O)O[C@@H]2CO)[C@H](O)[C@@H](O)[C@H]1O` (stereo partly drawn) [Lac], at Gal-7 (pH 7.2), the Kd is 323 ± 5.7 µM.
On the same count and under the same terms, for `CC(=O)N[C@H]1C(O)O[C@H](CO)[C@H](O)[C@@H]1O[C@@H]1O[C@H](CO)[C@H](O)[C@H](O)[C@H]1O` (stereo partly drawn) [core 1 mucin-type O-glycan disaccharide] the value was 1250 ± 126 µM.
